For the test, the system named is C. elegans. The experiment in a line: Retraction reflex of nematodes to a local thermal stimulus (laser, head region). Format: in vivo, Caenorhabditis elegans. To be noted: for effect on the reflex behaviour of the nematode: nematodes exposed to the substance, local thermal stimulus. As to the method: The inventors' experiments have thus shown that the use of C. elegans as an animal model for studying materials in terms of their suitability as medicaments in humans or other mammals allows reliable predictions to be made, especially where the sensation or perception of pain is involved, both in terms of algesic or hyperalgesic effects and in terms of analgesic effects. […] A normal reflex to a thermal stimulus of e.g. 32-40° C. in the head region of the nematode can be described as follows:
I) Rapid reflexive retraction by at least one whole body length and subsequent orientation of the head in another direction.
II) Rapid reflexive retraction, but without backward motion.
The well-fed test animals (C. elegans) (about 100; length about 1.3 mm; diameter 80 μm) were irradiated in the experiments with an infrared laser (685±0.5 nm). The laser beam was always focused on a spot of diameter 30 μm in the head region of the animal, a local warming to 33.5±1° C. being observed on an agar surface. To examine the animals' behaviour in greater detail, they were exposed to a nociceptive stimulus, after which they were incubated in capsaicin at concentrations varying from 1 to 100 μM. A strong reaction was still being observed 1 h after incubation.

Take `COc1cc(CNC(=O)CCCC/C=C/C(C)C)ccc1O` [capsaicin]: the “effect on the reflex behaviour of the nematode” value is given as “can be influenced”. Also, for the setting “C. elegans mutants whose normal behaviour is that only 70% of the animals react as in I)”, the “reaction (intensified reflex as in I)) in mutants” value is reported as “observed even more clearly”. Also, the “animals exhibiting a reflex as in I) (rapid reflexive retraction by at least one whole body length)” value (incubated in capsaicin 1 to 100 μM, 1 h after incubation, laser warming to 33.5±1° C. in head region, control group 80%) is reported as “over 90%”.

In the case of `Oc1cc2c(cc1O)CN(C(=S)NCCc1ccc(Cl)cc1)CCC2` [capzazepine], the “effect on the reflex behaviour of the nematode” value is recorded as “can be influenced”.
